# From PMC5458078, “Global mapping of CARM1 substrates defines enzyme specificity and substrate recognition” (Nature Communications, 2017)
# Like-named read-outs stand apart in the source and are kept apart here.
# Columns and labels:
# [1] = tested on: MCF7 cells; assay: Quantitative nanoLC-MS/MS (TMT) of ADMA-containing peptides, CARM1 KO vs parental; type: cell-based, human; set-up: Fold change KO/WT: scale not given here
# [2] = tested on: MCF7 CARM1 KO cells; assay: Quantitative MS of ADMA-containing peptides in MCF7 CARM1 KO cells expressing CARM1 28-608 or CARM1 140-608, and in CARM1 KO; type: cell-based, human
# [3] = MCF7, CARM1 KO vs WT, three biological replicates each
# [4] = CARM1 140-608 vs WT, mean of 3 replicates, log2
# [5] = KO vs WT, mean of 3 replicates, log2
# [6] = MCF7, CARM1 KO (KO1-KO3) vs wild type (WT1-WT3)
# [7] = CARM1 140-608 vs WT, mean of 3 replicates (log2 scale)
# [8] = KO vs WT, mean of 3 replicates (log2 scale)
# [9] = MCF7, CARM1 knockout vs wild type, n = 3 each
# [10] = mean, CARM1 140-608 versus WT (log2 scale)
# [11] = mean, CARM1 KO versus WT (log2 scale)
# [12] = MCF7 CARM1 knockout vs wild type, 3 biological replicates each, values are on log2 scale
# [13] = difference of log2 means, CARM1 140-608 vs WT
# [14] = difference of log2 means, KO vs WT
# [15] = ratio on log2 scale, mean of 3 replicates
# [16] = CARM1 KO vs wild type MCF7 cells, 3 biological replicates each
# [17] = CARM1 140-608 versus WT, difference of mean log2 values
# [18] = CARM1 KO versus WT, difference of mean log2 values
# [19] = ADMA-containing peptide, MCF7, CARM1 knockout (KO1-3) vs wild type (WT1-3), TMT 6-plex experiment #1
# [20] = log2 scale ratio, mean of n = 3
# [21] = ADMA-containing peptide, CARM1 knockout (KO) vs wild type (WT) MCF7 cells, 6-plex TMT experiment #1, three biological replicates each, sheet "MCF7"
# [22] = CARM1 140-608 versus WT, mean of three replicates (log2)
# [23] = KO versus WT, mean of three replicates (log2)
substance,measurement,setting,value
GArLPGPVSSAR,Fold change KO/WT,[1]; [3],-2.095
same,CARM1 140-608/WT,[2]; [4],-1.788
same,KO/WT,[2]; [5],-2.095
YRPYDGAASAYAQNYrYPEPERPSSR,Fold change KO/WT,[1]; [6],-0.7141
same,CARM1 140-608/WT,[2]; [7],-1.157
same,KO/WT,[2]; [8],-0.7141
YLQTVQYGVHGNFPrLSYPTFFPR,Fold change KO/WT,[1]; [9],-2.556
same,CARM1 140-608/WT,[2]; [10],-2.496
same,KO/WT,[2]; [11],-3.476
QPVPFGLVrFGVAPDHPEVK,Fold change KO/WT,[1]; [9],-1.677
same,CARM1 140-608/WT,[2]; [10],-1.417
same,KO/WT,[2]; [11],-1.677
STLKPQPAPQAGPIPVAPIGTLKPQPQPVPASYTTASTSSrPTFNVQVK,Fold change KO/WT,[1]; [12],-3.941
same,CARM1 140-608/WT,[2]; [13],-2.676
same,KO/WT,[2]; [14],-3.941
TVPMGGVrLVTPVTVSAVKPAVTTLVVK,Fold change KO/WT,[1]; [9],-2.889
same,CARM1 140-608/WT,[2]; [10],-0.6483
same,KO/WT,[2]; [11],-2.889
FSPNPPQQGAVrPQTLNFSSR,Fold change KO/WT,[1]; [3],-3.724
same,CARM1 140-608/WT,[2]; [15],1.2079
same,KO/WT,[2]; [15],-1.542
DVEAATGQDLGSSrYSGK,Fold change KO/WT,[1]; [16],0.2995
same,CARM1 140-608/WT,[2]; [17],-0.09015
same,KO/WT,[2]; [18],-0.4514
LINFQNHSPKPNGPVLPPHPQQLrYPPNQNIPR,Fold change KO/WT,[1]; [19],0.6311
same,CARM1 140-608/WT,[2]; [17],0.3327
same,KO/WT,[2]; [18],0.1723
GILPMNPrNMMNHSQVGQGIGIPSR,Fold change KO/WT,[1]; [9],-1.864
same,CARM1 140-608/WT,[2]; [15],-1.1659
same,KO/WT,[2]; [15],-1.864
CPADNPGLVQAQPrVPLTPTR,Fold change KO/WT,[1]; [19],-4.345
same,CARM1 140-608/WT,[2]; [20],-3.3817
same,KO/WT,[2]; [20],-4.345
GFYPQYGALETrGGFNPR,Fold change KO/WT,[1]; [12],-0.3326
same,CARM1 140-608/WT,[2]; [10],-0.6578
same,KO/WT,[2]; [11],-0.432
LAMDFGGAGAAQQGLTDSCQSGGVPTAVQNLAPrAAVAAAAPrAVAPYK,Fold change KO/WT,[1]; [21],-4.352
same,CARM1 140-608/WT,[2]; [22],-1.57
same,KO/WT,[2]; [23],-4.352
QSSATSSFGGLGGGSVrFGPGVAFR,Fold change KO/WT,[1]; [12],-2.868
same,CARM1 140-608/WT,[2]; [13],-2.723
same,KO/WT,[2]; [14],-4.023
SPYTTTrYGSPINTFTVrPGTR,Fold change KO/WT,[1]; [3],-3.428
same,CARM1 140-608/WT,[2]; [4],-2.642
same,KO/WT,[2]; [5],-5.424
QrGVSHAMGGrGGINrGNIN,Fold change KO/WT,[1]; [19],0.1671
same,CARM1 140-608/WT,[2]; [17],-0.01925
same,KO/WT,[2]; [18],0.2719
DYFPPGDFPGPPPAPFAMrNVYPPrGFPPYLPPrPGFFPPPPHSEGR,Fold change KO/WT,[1]; [9],-2.577
same,CARM1 140-608/WT,[2]; [15],-0.7489
same,KO/WT,[2]; [15],-2.577
MGTPVPRPPQDMGQIGVrTPLGPrVAAPVGPVGPTPTVLPMGAPVPrPR,Fold change KO/WT,[1]; [6],-2.803
same,CARM1 140-608/WT,[2]; [7],-2.519
same,KO/WT,[2]; [8],-3.3286
SSGSPYGGGYGSGGGSGGYGSrRF,Fold change KO/WT,[1]; [9],-0.5008
WrYNKPLPPTPDLPQPHLPPISAPGSSR,Fold change KO/WT,[1]; [3],-1.565
same,CARM1 140-608/WT,[2]; [4],-1.118
same,KO/WT,[2]; [5],-1.565
SNSGPYrGGYGGGGGYGGSSF,Fold change KO/WT,[1]; [9],-0.1493
GPPLArLPHDPGVFR,Fold change KO/WT,[1]; [9],-1.8
same,CARM1 140-608/WT,[2]; [15],-1.527
same,KO/WT,[2]; [15],-1.8
SYrGGGGGGGGWR,Fold change KO/WT,[1]; [19],-0.08168
AYGQQYWGQPGNrGGYRNFYDR,Fold change KO/WT,[1]; [12],0.6249
same,CARM1 140-608/WT,[2]; [10],-0.3814
same,KO/WT,[2]; [11],1.342
DQPGTSAVPNLASVGTrLPPPLPQNLLYTVSER,Fold change KO/WT,[1]; [6],-4.596
same,CARM1 140-608/WT,[2]; [22],-1.1192
same,KO/WT,[2]; [23],-4.635
LLGQRPGPYDRPIGGrGGYYGAGrGSMYDR,Fold change KO/WT,[1]; [12],0.5689
same,CARM1 140-608/WT,[2]; [10],-0.09536
same,KO/WT,[2]; [11],1.04
STrGGHMNSGGHAK,Fold change KO/WT,[1]; [3],0.07617
same,CARM1 140-608/WT,[2]; [4],0.5079
same,KO/WT,[2]; [5],0.07617
ATSVLPrYGPPCLFK,Fold change KO/WT,[1]; [19],-3.4878
same,CARM1 140-608/WT,[2]; [20],-1.277
same,KO/WT,[2]; [20],-3.4878
IAQPVrSFLQPPKPLSSLSTLR,Fold change KO/WT,[1]; [6],-2.977
same,CARM1 140-608/WT,[2]; [7],-1.679
same,KO/WT,[2]; [8],-2.977
GPPPGSANPPrLVSSYrLK,Fold change KO/WT,[1]; [12],-2.444
same,CARM1 140-608/WT,[2]; [13],-0.6365
same,KO/WT,[2]; [14],-1.758
LGQDPYrLGHDPYR,Fold change KO/WT,[1]; [19],-1.973
same,CARM1 140-608/WT,[2],-1.933
same,KO/WT,[2],-1.973
QQQQQQQQQQQQLDLLFHQrIQISLWPR,Fold change KO/WT,[1]; [9],-2.494
GSGTGIYSNAAPPPVTYQGNLYrPLLrGQAQIPK,Fold change KO/WT,[1]; [16],-4.659
GPQWKRGArGGNLVTGTQr,Fold change KO/WT,[1]; [12],-0.2728
SAGGRPGSGPQLGTGrGTLR,Fold change KO/WT,[1]; [9],-0.3785
AGPrLLLIPVQQGSPTLRPVSNTQLQGHrMVLQPVR,Fold change KO/WT,[1]; [21],-0.6769
GTPVrGAITR,Fold change KO/WT,[1]; [12],-0.02001
AGPrLLLIPVQQGSPTLrPVSNTQLQGHrMVLQPVR,Fold change KO/WT,[1]; [21],-0.8102
AYSSFGGGrGSR,Fold change KO/WT,[1]; [9],-0.1369
FFHMPrFQHQAPrQLFYK,Fold change KO/WT,[1]; [16],-1.814
GGrFSAQGMGTFNPADYAEPANTDDNYGNSSGNTWNNTGHFEPDDGTSAWR,Fold change KO/WT,[1]; [16],-0.4035
LLGQRPGPYDrPIGGrGGYYGAGrGSMYDR,Fold change KO/WT,[1]; [12],-0.2245
GAEAANVTGPDGVPVEGSrYAADR,Fold change KO/WT,[1]; [16],-1.299
MGTPVPrPPQDMGQIGVRTPLGPR,Fold change KO/WT,[1]; [6],-2.466
SLGSVQAPSYGARPVSSAASVYAGAGGSGSrISVSR,Fold change KO/WT,[1]; [12],-1.494
CAGFLEPTWLAAPPRLArPPR,Fold change KO/WT,[1]; [9],-1.124
